Data on 21 molecules can be found in ChEMBL document CHEMBL4177722, “Small molecule inhibitors of anthrax edema factor” (Bioorg Med Chem Lett, 2018).

The test system of one data set is RAW264.7. The data set is described as follows: Cytotoxicity against mouse RAW264.7 cells assessed a reduction in cell viability incubated for 24 hrs in absence of 10% FBS by MTT assay. It is filed as cell-based. The note with it: raw264.7, 24 h.
In data set [1] the target is T1, Calmodulin-sensitive adenylate cyclase (Bacillus anthracis, UniProt P40136).
T1 sequence (P40136 whole entry): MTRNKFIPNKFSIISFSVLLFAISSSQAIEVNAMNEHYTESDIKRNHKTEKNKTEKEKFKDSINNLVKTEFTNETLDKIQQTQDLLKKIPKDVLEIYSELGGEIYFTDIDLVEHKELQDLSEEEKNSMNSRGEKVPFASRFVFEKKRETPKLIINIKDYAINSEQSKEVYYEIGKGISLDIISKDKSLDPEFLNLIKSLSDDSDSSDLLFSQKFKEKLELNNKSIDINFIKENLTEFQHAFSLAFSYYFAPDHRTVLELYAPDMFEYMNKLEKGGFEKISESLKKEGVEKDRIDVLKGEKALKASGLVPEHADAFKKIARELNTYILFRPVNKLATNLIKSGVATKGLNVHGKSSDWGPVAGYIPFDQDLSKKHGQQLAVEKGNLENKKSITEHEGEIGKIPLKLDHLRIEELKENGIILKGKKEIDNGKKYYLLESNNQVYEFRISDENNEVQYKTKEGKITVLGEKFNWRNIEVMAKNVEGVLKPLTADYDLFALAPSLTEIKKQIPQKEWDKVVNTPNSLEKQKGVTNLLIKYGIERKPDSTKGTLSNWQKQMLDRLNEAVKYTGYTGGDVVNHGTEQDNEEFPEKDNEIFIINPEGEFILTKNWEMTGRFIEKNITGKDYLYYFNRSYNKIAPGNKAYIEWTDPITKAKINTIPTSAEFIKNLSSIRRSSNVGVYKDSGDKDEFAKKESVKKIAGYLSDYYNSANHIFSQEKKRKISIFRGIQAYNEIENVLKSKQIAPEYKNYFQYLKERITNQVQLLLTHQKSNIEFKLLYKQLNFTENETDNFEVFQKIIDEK
The data set is described as follows: Inactivation of Bacillus anthracis edema factor in presence of CaM incubated for 10 to 240 mins by EnzChek pyrophosphate assay.

Data set [2] concerns the target T2, Calmodulin-sensitive adenylate cyclase (Bacillus anthracis) (UniProt P40136).
T2 sequence (whole entry): T1 sequence (P40136 whole entry)
Kind of data set: Inactivation of Bacillus anthracis edema factor assessed as inactivation rate constant in presence of CaM incubated for 10 to 240 mins by EnzChek pyrophosphate assay.

Data set [3] has as its target T2, Calmodulin-sensitive adenylate cyclase (Bacillus anthracis). Kind of data set: Inactivation of Bacillus anthracis edema factor assessed as Kinact/Ki ratio in presence of CaM incubated for 10 to 240 mins by EnzChek pyrophosphate assay relative to FSBA.
Data set [4] is described as follows: Cytotoxicity against mouse RAW264.7 cells assessed a reduction in cell viability incubated for 24 hrs in presence of 10% FBS by MTT assay. It is filed as cell-based. The conditions noted are these: RAW264.7 cells. A general note: Formazan colour is commonly taken as a measure of viable cells.
Data set [5] addresses T2, Calmodulin-sensitive adenylate cyclase (Bacillus anthracis). The data set is described as follows: Inactivation of Bacillus anthracis edema factor assessed as Kinact/Ki ratio in presence of CaM incubated for 10 to 240 mins by EnzChek pyrophosphate assay.
The nature of data set [6]: Stability in C57BL/6 mouse plasma assessed as half life at 10 uM by LC-MS method. It is filed as ADME, cell-free, C57B/6.

By CC50 is commonly meant the concentration that lowers cell viability or growth by half. Consider `Nc1ncnc2c1ncn2C1CCN(C(=O)c2ccc(S(=O)(=O)F)cc2)CC1`, for which the Activity entry in the data set on RAW264.7 was “Non-Toxic”. Also, in data set [1], the Ki was determined as 9.4 µM. The Kinact in data set [2] came out at 0.01 min⁻¹. Further, the figures for the Ratio in data set [3] and in data set [5] were 1.3 and 18, respectively. Further, in data set [4], the CC50 at 24 h is more than 100 µM.
On to `Cc1cc(OC2CCN(Cc3ccc(S(=O)(=O)F)cc3)CC2)cc(N)n1`, for which the Activity entry with RAW264.7 is on record as “Non-Toxic”. In data set [1], the Ki was 42.2 µM. Moreover, in data set [2], the Kinact came to 0.02 min⁻¹. The Ratio in data set [3] was found to be 0.6; in data set [5], 7.9. Also, the half-maximal cytotoxic concentration (CC50) at 24 h in data set [4] was more than 100 µM.
In the case of `Cc1nc(N)c2cnn(CCCNC(=O)c3ccc(S(=O)(=O)F)cc3)c2n1`, the Activity result in the data set with RAW264.7 was “Non-Toxic”. For the same molecule, the Ki in data set [1] was found to be 34.8 µM. Besides, the Kinact in data set [2] was found to be 0.121 min⁻¹. Besides, the Ratio in data set [3] was determined as 4.3; in data set [5], 58. Besides, in data set [4], the half-maximal cytotoxic concentration (CC50) at 24 h was more than 100 µM.
A word on the half-life: it is the time needed for the level to fall by half in the phase considered. For the molecule `Cc1nc(N)c2cnn(C3CCN(Cc4ccc(S(=O)(=O)F)cc4)CC3)c2n1`, in the data set with RAW264.7, the Activity result is “Non-Toxic”. Further, in data set [1], the Ki was 4.6 µM. Moreover, in data set [2], the Kinact turned out to be 0.052 min⁻¹. Further, the Ratio was found to be 14.2 in data set [3] and 190 in data set [5]. The CC50 at 24 h in data set [4] is more than 100 µM. The half-life at 10 µM in data set [6] is 1.2 h.
Take `Cc1nc(N)cc(OCCNC(=O)c2ccc(S(=O)(=O)F)cc2)n1`: the Activity entry in the data set on RAW264.7 is “Non-Toxic”. Further, the Ki in data set [1] is 286 µM. Further, the Kinact in data set [2] is 0.158 min⁻¹. Also, the Ratio in data set [3] was 0.7; in data set [5], 9.2. Moreover, the CC50 at 24 h in data set [4] was more than 100 µM.
On to `Cc1nc(N)cc(OC2CCN(C(=O)c3ccc(S(=O)(=O)F)cc3)CC2)n1`, for which, in the data set with RAW264.7, the Activity result was “Non-Toxic”. Moreover, the Ki in data set [1] is 27.6 µM. Moreover, in data set [2], the Kinact turned out to be 0.112 min⁻¹. In addition, the Ratio in data set [3] stood at 5.1; in data set [5] it was 67.8. In addition, the CC50 at 24 h in data set [4] was more than 100 µM.
`Nc1ncnc2c1ncn2CCCNC(=O)c1ccc(S(=O)(=O)F)cc1`: in the data set on RAW264.7, the Activity entry was “Non-Toxic”. For the same molecule, in data set [1], the Ki came to 37.7 µM. Moreover, in data set [2], the Kinact is 0.012 min⁻¹. The Ratio in data set [3] came out at 0.4; in data set [5] it was 5.3. The CC50 at 24 h in data set [4] was more than 100 µM.
On to `CCOC(=O)C1=C[C@]2(CC)CCCN3CCc4c(n1c1ccccc41)[C@@H]32` [VINPOCETINE], for which, in data set [6], the half-life at 10 µM is 13.1 h.
In the case of `Cc1nc(N)c2cnn(C3CCN(C(=O)c4ccc(S(=O)(=O)F)cc4)CC3)c2n1`, the Activity result in the data set on RAW264.7 is on record as “Non-Toxic”. In data set [1], the Ki stood at 2.1 µM. Also, in data set [2], the Kinact was 0.072 min⁻¹. For the same molecule, the Ratio in data set [3] came to 43.3; in data set [5], 581. In data set [4], the cytotoxic concentration (CC50) at 24 h was more than 100 µM. The half-life at 10 µM in data set [6] was 1.2 h.
As for `Nc1cc(OC2CN(C(=O)c3ccc(S(=O)(=O)F)cc3)C2)ccn1`, the Activity result in the data set with RAW264.7 was “Non-Toxic”. In addition, in data set [1], the Ki turned out to be 10.9 µM. Further, in data set [2], the Kinact was determined as 0.003 min⁻¹. In addition, the results for the Ratio in data set [3] and in data set [5] were 0.4 and 4.9, respectively.
With `Nc1ncnc2c1ncn2[C@@H]1CCCN(C(=O)c2ccc(S(=O)(=O)F)cc2)C1`, the Activity entry in the data set with RAW264.7 was “Non-Toxic”. Besides, the Ki in data set [1] stood at 96.5 µM. In addition, the Kinact in data set [2] is 0.039 min⁻¹. Also, the results for the Ratio in data set [3] and in data set [5] were 0.5 and 6.7, respectively. Besides, the cytotoxic concentration (CC50) at 24 h in data set [4] was more than 100 µM.
Regarding `Nc1cc(OCCNC(=O)c2ccc(S(=O)(=O)F)cc2)ccn1`, in the data set on RAW264.7, the Activity result is reported as “Non-Toxic”. Besides, the Ki in data set [1] was determined as 127 µM. The Kinact in data set [2] came out at 0.028 min⁻¹. Also, the Ratio in data set [3] worked out at 0.3; in data set [5], 3.6. The cytotoxic concentration (CC50) at 24 h in data set [4] is more than 100 µM.
For `Nc1cc(OCCNCc2ccc(S(=O)(=O)F)cc2)ccn1`, the Activity result in the data set on RAW264.7 is “Non-Toxic”. The Ki in data set [1] stood at 49.6 µM. In data set [2], the Kinact is 0.029 min⁻¹. Moreover, the Ratio in data set [3] came out at 0.7; in data set [5] it was 9.6. In addition, the half-maximal cytotoxic concentration (CC50) at 24 h in data set [4] is more than 100 µM.
Turning to `Nc1cc(OCCCNCc2ccc(S(=O)(=O)F)cc2)ccn1`, the Activity result with RAW264.7 is “Non-Toxic”. Also, in data set [1], the Ki is 222 µM. Besides, the Kinact in data set [2] was found to be 0.063 min⁻¹. Also, the Ratio in data set [3] was 0.4; in data set [5], 4.7. Moreover, in data set [4], the CC50 at 24 h is more than 100 µM.
On to `Nc1cc(OCCCNC(=O)c2ccc(S(=O)(=O)F)cc2)ccn1`, for which the Activity result in the data set on RAW264.7 is “Non-Toxic”. Besides, the Ki in data set [1] was 88.1 µM. In data set [2], the Kinact came out at 0.043 min⁻¹. Further, the Ratio in data set [3] worked out at 0.6; in data set [5], 8.1. In addition, the cytotoxic concentration (CC50) at 24 h in data set [4] was more than 100 µM.
As for `Nc1cc(OC2CCN(C(=O)c3ccc(S(=O)(=O)F)cc3)CC2)ccn1`, the Activity result with RAW264.7 is on record as “Non-Toxic”. The Kinact in data set [2] fell in the range of 0.049 to 0.069 min⁻¹. Further, the Ratio in data set [3] was 0.4 to 1.4; in data set [5], 5.8 to 19.3. Also, in data set [4], the CC50 at 24 h was more than 100 µM. In addition, in data set [6], the half-life at 10 µM was 0.66 h.
For the molecule `Nc1ncnc2c1cnn2C1CCN(C(=O)c2ccc(S(=O)(=O)F)cc2)CC1`, the Activity entry with RAW264.7 is “Non-Toxic”. For the same molecule, in data set [1], the Ki is 3.7 µM. Further, in data set [2], the Kinact was 0.26 min⁻¹. The figures for the Ratio in data set [3] and in data set [5] were 86.7 and 1160, respectively. Besides, the 50% cytotoxic concentration (CC50) at 24 h in data set [4] was more than 100 µM.
For `Nc1ncnc2c1ncn2CCOC(=O)c1ccc(S(=O)(=O)F)cc1`, the Activity result in the data set on RAW264.7 is on record as “Non-Toxic”. For the same molecule, the Ki in data set [1] was determined as 25.9 µM. In addition, in data set [2], the Kinact came to 0.011 min⁻¹. The results for the Ratio in data set [3] and in data set [5] were 0.5 and 6.9, respectively. The cytotoxic concentration (CC50) at 24 h in data set [4] is more than 100 µM.
For the molecule `Cc1nc(N)c2ncn(C3CCN(Cc4ccc(S(=O)(=O)F)cc4)CC3)c2n1`, the Activity entry in the data set with RAW264.7 is recorded as “Non-Toxic”. For the same molecule, in data set [1], the Ki was 14.7 µM. Also, the Kinact in data set [2] is 0.028 min⁻¹. Moreover, the results for the Ratio in data set [3] and in data set [5] were 2.3 and 31.2, respectively. Moreover, the CC50 at 24 h in data set [4] was more than 100 µM.
Turning to `Nc1cc(O[C@@H]2CCN(C(=O)c3ccc(S(=O)(=O)F)cc3)C2)ccn1`, in the data set with RAW264.7, the Activity entry is “Non-Toxic”. Moreover, the Ki in data set [1] turned out to be 38.9 µM. Further, the Kinact in data set [2] worked out at 0.008 min⁻¹. Moreover, the Ratio in data set [3] came out at 0.3; in data set [5], 3.5.
Consider `Cc1nc(N)c2ncn(C3CCN(C(=O)c4ccc(S(=O)(=O)F)cc4)CC3)c2n1`, for which the Activity entry in the data set with RAW264.7 is given as “Non-Toxic”. Moreover, the Ki in data set [1] worked out at 16.5 µM. The Kinact in data set [2] is 0.062 min⁻¹. The Ratio in data set [3] came to 4.7; in data set [5], 62.8. In data set [4], the 50% cytotoxic concentration (CC50) at 24 h was more than 100 µM.
